{"source": "patent US6548540B2", "about": "“Method of treating cancer using dithiocarbamate derivatives” (Charlotte-Mecklenburg Hospital Authority, priority 1998, dated 2003)", "format_in_all_cases": "cell-based, human", "key": {"[1]": {"tested_on": "transcription factor binding to CRE (cyclic AMP response element)", "assay": "EMSA of nuclear protein from treated M1619 cells, binding to CRE", "protocol": "This dose was chosen to approximate the steady state plasma and tissue concentrations of drug in human subjects on chronic therapy with this agent. Disulfiram was solubilized in dimethylsulfoxide (DMSO) so that the final concentration of DMSO was less than 0.3-0.5%. Equal volumes of DMSO were added to control experiments. Nuclear protein was harvested and electrophoretic mobility gel shift assays were performed using DNA consensus binding sequence for the cyclic-AMP responsive element (CRE) as outlined below. […] Nuclear protein was isolated and DNA binding reactions were performed as previously described in detail (See, […], et al., “Dehydroepiandrosterone and analogs inhibit DNA binding of AP-1 and airway smooth muscle proliferation,” J. Pharmacol. Exper. Ther. 285:[…] (1998); T. Kennedy, et al., “Copper-dependent inflammation and nuclear factor-κB activation by particulate air pollution,” Am. J. Respir. Cell Mol. Biol. 19:366-378 (1998)). Monolayers were washed twice in cold DPBS and equilibrated 10 minutes on ice with 0.7 ml cold cytoplasmic extraction buffer, CEB (10 mM Tris, pH 7.9, 60 mM KCl, 1 mM EDTA, 1 mM DTT) with protease inhibitors, PI (1 mM Pefabloc, 50 μg/ml antipain, 1 μg/ml leupeptin, 1 μg/ml pepstatin, 40 μg/ml bestatin, 3 μg/ml E-64 and 100 μg/ml chymostatin). The detergent Nonidet P-40 (NP-40) was added to a final concentration of 0.1% and cells were dislodged with a cell scraper. Nuclei were pelleted by centrifugation and washed with CEB/PI. […] DNA-protein binding reactions were performed with 2 μg of nuclear protein (as determined by the Pierce method) and 30-80,000 cpm of ^32P-end-labelled double-stranded DNA probe in 10 mM Tris-HCl, pH 7.5, 50 mM NaCl, 0.5 mM EDTA, 0.5 mM DTT (except where indicated), 1 mM MgCl2, 50 μg/ml poly dI-dC, and 4% glycerol. […] Gels were dried and analyzed by autoradiography at -80° C. using an image intensifier screen. […]"}, "M1619 melanoma cells": {"tested_on": "M1619 melanoma cells", "assay": "Intracellular copper by plasma emission spectroscopy", "settings": "6 hours, ng copper/ml of hydrolysate", "protocol": "Finally, a number of dithiocarbamate effects on cells have been attributed to increasing the intracellular levels of copper ions. To further probe the role of copper in mediating cytotoxicity from disulfiram, cells were cultured with or without addition of the impermeate Cu^2+ chelator bathocuprioinedisulfonic acid (BCPS, 100 μM) added to medium to sequester Cu^2+ in the extracellular compartment. Cells were also treated 12 hours with various concentration of disulfiram (0.625 to 5.0 μM) and intracellular copper levels were measured as outlined below.\nCells were cultured in 12-well plastic tissue culture plates at an initial plating density of 50,000 cells/well, grown to confluence and treated with disulfiram or vehicle DMSO as outlined above. Media was removed and cells were washed twice with DPBS. Cells were then scraped into 1.0 ml of 3N HCl/10.0% trichloroacetic acid and hydrolyzed at 70° C. for 16 hours. The hydrolysate was centrifuged at 600 gm for 10 minutes to remove debris and copper was measured in the supernatant using inductively coupled plasma emission spectroscopy (Model P30, Perkin Elmer, Norwalk, Conn.) at wavelengths of […] and 224.700 nm. To minimize metal contamination, plasticware rather than glassware was used in these experiments, and double-distilled, deionized water was used for all aqueous media. Results are reported as ng copper/ml of hydrolysate.\nM1619 melanoma cells were cultured at a density of 50,000 cells/well in 24 well plates in the presence of 10% FBS and grown to confluence. Disulfiram or DMSO vehicle (5 μl/ml) was added at the concentrations indicated, and cells were incubated an additional 6 hours. Supernatant was removed from cells and monolayers were washed twice with DPBS. Cells were scraped into 1.0 ml 3 N HCL/10% trichloroacetic acid and hydrolyzed at 70° C. for 16 hours. After centrifugation at 600 g×10 min, copper was measured using inductively coupled plasma emission spectroscopy at wavelengths of 324.754 and 224.700 nm. Replicates of four are reported. To minimize metal contamination, plastic ware rather than glass was used in experiments, and double-distilled, deionized water was used for all aqueous media. ^Ap<0.01 compared to DMSO control; ^Bp<0.001 compared to DMSO control."}, "[2]": {"tested_on": "H82 small cell lung cancer cells", "assay": "Trypan blue cytotoxicity, H82", "settings": "0.625 μM disulfiram; 36 hours", "protocol": "To assess for cytotoxicity, cells were plated at a density of 50,000 per well on 24 well plates and grown for 24 hours. Disulfiram was then added. After an additional 36 hours, medium was removed and replaced with DPBS containing 0.1% trypan blue. Cell death was assessed by counting the average number of trypan blue positive cells per 10×field in 5 random fields for 4 separate wells."}}, "note": "Entries after “also recorded” stand apart in the source; their conditions may differ."}
{"smiles": "CCN(CC)C(=S)SSC(=S)N(CC)CC", "note": "[Disulfiram, tetraethylthiuram disulfide]", "values": [{"measurement": "DNA-binding to CRE", "setting": "[1]; 5 μM disulfiram alone, treated cells", "result": "slightly reduced"}, {"measurement": "transcription factor binding to CRE", "setting": "[1]; 5 μM disulfiram and 1.6 μM cupric sulfate, cells treated 6, 12 or 24 hour", "result": "substantially interrupts; also recorded: eliminated"}, {"measurement": "DNA binding of the upper ATF-2 containing complex II (densitometry)", "setting": "[1]; disulfiram 5 μM plus CuSO4 1.6 μM, 8 hours, n=4", "result": "by half"}, {"measurement": "Intracellular Copper", "setting": "M1619 melanoma cells; FBS + 0.625 μM DS", "result": "76 ± 11", "unit": "ng/mL"}, {"measurement": "Intracellular Copper", "setting": "M1619 melanoma cells; FBS + 1.25 μM DS", "result": "102 ± 5^A ng/ml"}, {"measurement": "Intracellular Copper", "setting": "M1619 melanoma cells; FBS + 2.5 μM DS", "result": "160 ± 17^A ng/ml"}, {"measurement": "Intracellular Copper", "setting": "M1619 melanoma cells; FBS + 5.0 μM DS", "result": "195 ± 3^B ng/ml"}, {"measurement": "trypan blue positive cells", "setting": "[2]", "result": "93±12 trypan blue positive cells per well"}]}
